We go through ten molecules from patent publication US20100272648A1, “Methods of Identifying Improved NMDA Receptor Antagonists” (priority 2008, published 2010).

Read-outs that look alike come from different tables or passages of the source.

One data set has as its system dyskinesias. Particulars: add-on therapy with L-DOPA, patients; cited from earlier work.
The target of data set [1] is rat NMDA-NR2B containing receptors (Rattus norvegicus, UniProt P35439+Q00960). Nature of the data set: pH potency boost, Xenopus oocyte assay, rat receptor cDNA. The settings on record: pH 6.9 vs 7.6, rat receptors. Type of data set: cell-based. The text has this: (§1) In vitro transcribed cRNA was purified using standard methods.
Chain of rat NMDA-NR2B containing receptors (Q00960 27-1482, other chains not shown): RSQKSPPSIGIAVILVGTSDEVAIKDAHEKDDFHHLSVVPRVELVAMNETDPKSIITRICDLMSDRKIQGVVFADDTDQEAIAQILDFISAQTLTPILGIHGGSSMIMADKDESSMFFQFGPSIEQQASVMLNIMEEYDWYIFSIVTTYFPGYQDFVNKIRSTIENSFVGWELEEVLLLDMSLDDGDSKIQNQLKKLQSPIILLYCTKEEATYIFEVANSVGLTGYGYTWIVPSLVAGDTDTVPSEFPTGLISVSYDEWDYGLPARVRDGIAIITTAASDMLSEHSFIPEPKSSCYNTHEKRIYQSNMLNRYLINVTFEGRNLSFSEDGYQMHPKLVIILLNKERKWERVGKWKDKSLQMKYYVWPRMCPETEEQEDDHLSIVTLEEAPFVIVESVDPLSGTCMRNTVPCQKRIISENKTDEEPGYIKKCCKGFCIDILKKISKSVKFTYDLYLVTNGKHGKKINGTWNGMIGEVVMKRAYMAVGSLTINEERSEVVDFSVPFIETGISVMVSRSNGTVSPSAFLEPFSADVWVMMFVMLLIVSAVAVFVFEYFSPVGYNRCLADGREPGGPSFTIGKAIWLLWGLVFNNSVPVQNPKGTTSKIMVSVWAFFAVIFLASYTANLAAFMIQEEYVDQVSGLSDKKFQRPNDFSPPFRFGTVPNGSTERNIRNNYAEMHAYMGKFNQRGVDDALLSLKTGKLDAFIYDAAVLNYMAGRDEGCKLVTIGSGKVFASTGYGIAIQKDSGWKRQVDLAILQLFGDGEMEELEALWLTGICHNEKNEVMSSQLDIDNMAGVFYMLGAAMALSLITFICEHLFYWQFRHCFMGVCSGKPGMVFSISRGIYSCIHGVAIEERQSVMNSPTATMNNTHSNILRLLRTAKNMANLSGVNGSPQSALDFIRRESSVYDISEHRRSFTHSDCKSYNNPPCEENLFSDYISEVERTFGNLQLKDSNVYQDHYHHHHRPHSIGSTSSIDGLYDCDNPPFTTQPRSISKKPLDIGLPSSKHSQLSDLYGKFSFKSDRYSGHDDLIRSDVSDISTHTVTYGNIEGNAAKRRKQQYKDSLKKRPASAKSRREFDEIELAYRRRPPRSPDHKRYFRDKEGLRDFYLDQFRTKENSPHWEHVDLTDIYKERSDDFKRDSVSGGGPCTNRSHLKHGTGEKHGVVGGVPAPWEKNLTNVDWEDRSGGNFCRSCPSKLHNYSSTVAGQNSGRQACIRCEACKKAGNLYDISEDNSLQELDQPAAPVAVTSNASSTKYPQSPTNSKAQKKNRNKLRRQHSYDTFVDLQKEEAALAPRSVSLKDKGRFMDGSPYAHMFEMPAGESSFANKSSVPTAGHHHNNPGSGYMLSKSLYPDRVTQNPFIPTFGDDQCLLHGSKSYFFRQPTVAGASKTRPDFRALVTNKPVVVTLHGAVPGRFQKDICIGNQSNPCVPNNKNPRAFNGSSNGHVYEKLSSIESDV
(§2) Preparation of pH-dependent NMDA receptor antagonists for testing.
(§3) Voltage-clamp recordings from Xenopus oocytes.
(§4) Determination of a pH dependent potency boost in antagonism, defined as the […].

Data set [2] concerns the target human NMDA-NR2B containing receptors (Homo sapiens, UniProt Q05586+Q13224). Nature of the data set: pH potency boost, Xenopus oocyte assay, human receptor cDNA. Particulars: for HUMAN Boost: pH potency boost, pH 6.9 vs 7.6, human receptors; for Absolute Boost Difference: rat versus human pH potency boost. The class given is cell-based.
Description: as §1, §2, §3, §4

The test system of data set [3] is infarct volume. The settings on record: rats, after middle cerebral artery occlusion; cited from earlier work.
Data set [4] relates to infarct volume. Particulars: cats, highest dose tested; cited from earlier work.
Data set [5] has as its system infarct volume. The settings on record: cats and rats, highest dose tested; cited from earlier work.
In another data set the target is NR1/NR2A receptors (Rattus norvegicus, UniProt P35439+Q00959). Nature of the data set: In vitro potency boost pH 6.9 vs 7.6 (NR1/NR2A, oocytes) versus infarct volume (FIG. 4). The settings on record: potency boost pH 6.9 vs 7.6 versus infarct volume.
Chain of NR1/NR2A receptors (Q00959 23-1464, other chains not shown): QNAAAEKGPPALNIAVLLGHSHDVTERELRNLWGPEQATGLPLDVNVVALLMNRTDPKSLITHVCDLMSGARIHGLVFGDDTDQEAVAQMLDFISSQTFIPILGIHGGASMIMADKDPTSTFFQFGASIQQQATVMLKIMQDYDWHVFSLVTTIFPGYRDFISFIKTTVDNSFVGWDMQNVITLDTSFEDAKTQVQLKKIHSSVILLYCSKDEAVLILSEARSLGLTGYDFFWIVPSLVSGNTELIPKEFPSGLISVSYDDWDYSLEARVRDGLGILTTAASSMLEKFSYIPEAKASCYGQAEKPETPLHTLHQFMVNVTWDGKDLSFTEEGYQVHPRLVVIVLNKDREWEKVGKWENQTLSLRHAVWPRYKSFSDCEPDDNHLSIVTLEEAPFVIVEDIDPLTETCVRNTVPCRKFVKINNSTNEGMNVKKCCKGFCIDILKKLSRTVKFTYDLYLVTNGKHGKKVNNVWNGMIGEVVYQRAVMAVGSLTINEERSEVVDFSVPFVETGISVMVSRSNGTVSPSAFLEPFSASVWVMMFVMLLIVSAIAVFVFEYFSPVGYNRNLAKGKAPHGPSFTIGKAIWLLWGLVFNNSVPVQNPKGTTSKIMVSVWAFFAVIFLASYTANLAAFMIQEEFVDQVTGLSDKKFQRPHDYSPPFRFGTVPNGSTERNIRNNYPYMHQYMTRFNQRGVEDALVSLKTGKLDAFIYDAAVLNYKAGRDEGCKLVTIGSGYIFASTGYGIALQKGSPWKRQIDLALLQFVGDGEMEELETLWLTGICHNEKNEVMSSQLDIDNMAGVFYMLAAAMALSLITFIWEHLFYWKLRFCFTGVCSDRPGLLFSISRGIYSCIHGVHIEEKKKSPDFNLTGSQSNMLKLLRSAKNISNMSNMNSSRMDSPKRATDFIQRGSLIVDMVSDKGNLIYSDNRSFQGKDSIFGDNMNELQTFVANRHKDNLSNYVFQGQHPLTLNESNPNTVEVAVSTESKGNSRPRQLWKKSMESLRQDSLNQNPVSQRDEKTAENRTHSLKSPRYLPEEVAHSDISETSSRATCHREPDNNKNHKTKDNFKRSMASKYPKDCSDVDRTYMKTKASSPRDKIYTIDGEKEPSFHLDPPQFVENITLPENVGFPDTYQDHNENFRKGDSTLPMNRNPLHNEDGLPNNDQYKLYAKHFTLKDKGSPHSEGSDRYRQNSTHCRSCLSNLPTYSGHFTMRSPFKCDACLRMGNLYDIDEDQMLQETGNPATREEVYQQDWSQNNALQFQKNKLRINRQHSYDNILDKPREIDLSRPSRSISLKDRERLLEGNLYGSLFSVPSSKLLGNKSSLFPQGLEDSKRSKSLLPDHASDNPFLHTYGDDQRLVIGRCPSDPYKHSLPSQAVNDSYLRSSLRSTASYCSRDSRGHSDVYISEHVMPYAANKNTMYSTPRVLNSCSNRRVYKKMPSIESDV
The nature of data set [6]: Locomotor activity of rats (light beam breaks). Particulars: IP, varying doses (3-300 mg/kg, compound-specific), monitored 2 hours after injection. Type of data set: in vivo, Sprague-Dawley rats. As for the experimental part:
Locomotor activity was monitored after injection for 2 hours.

Chain of human NMDA-NR2B containing receptors (Q13224 27-1484, other chains not shown): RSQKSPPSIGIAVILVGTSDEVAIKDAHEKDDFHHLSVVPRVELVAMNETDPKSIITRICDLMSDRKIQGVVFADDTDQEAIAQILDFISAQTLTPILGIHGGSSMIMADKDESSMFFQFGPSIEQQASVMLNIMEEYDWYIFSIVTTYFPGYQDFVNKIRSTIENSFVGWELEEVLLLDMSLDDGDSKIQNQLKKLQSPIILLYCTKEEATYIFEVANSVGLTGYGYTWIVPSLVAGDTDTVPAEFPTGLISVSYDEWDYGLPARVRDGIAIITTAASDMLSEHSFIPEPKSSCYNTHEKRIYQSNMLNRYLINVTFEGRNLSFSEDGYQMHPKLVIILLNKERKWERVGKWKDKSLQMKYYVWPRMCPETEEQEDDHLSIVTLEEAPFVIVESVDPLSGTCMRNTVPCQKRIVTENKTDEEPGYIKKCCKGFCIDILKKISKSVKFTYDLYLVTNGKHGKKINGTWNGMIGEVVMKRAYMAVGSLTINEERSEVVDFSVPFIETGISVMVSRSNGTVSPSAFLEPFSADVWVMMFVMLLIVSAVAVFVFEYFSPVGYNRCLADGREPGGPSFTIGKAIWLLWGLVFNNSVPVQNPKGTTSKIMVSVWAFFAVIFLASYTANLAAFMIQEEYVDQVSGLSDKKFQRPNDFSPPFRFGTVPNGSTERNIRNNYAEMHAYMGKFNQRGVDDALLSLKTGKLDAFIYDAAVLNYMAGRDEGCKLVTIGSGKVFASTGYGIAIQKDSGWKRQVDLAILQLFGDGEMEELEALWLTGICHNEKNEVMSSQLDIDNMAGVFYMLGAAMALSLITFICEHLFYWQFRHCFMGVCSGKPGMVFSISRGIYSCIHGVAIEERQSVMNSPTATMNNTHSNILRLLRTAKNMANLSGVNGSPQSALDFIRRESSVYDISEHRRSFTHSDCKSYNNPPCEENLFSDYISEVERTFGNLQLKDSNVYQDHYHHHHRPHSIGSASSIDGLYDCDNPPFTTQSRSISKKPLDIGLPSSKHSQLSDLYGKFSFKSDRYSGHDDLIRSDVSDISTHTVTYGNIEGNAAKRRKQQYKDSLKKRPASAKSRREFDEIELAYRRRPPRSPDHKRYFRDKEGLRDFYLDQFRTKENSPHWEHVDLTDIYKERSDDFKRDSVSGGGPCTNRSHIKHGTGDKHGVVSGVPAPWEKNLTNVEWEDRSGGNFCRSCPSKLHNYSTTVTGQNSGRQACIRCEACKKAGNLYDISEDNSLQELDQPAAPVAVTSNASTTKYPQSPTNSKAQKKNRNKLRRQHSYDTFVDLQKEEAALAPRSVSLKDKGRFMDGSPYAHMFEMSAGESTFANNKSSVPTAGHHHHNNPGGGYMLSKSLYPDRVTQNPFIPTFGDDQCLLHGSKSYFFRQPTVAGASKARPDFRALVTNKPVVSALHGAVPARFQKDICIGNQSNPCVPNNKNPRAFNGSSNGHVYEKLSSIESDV
Description for NR1/NR2A receptors: Expression of NMDA receptors in Xenopus oocytes. cRNA was synthesized from linearized template cDNA for NMDA receptor subunits (NR1-1a, NR2B, NR2A) according to manufacturer specifications (Ambion:). cDNAs used corresponded to GenBank numbers U08261 and U11418 (NR1-1a), AF001423 and CD13211 (NR2A), U11419 (NR2B). Briefly, cDNA was linearized with an appropriate restriction enzyme downstream of the coding region, purified, and incubated with RNA polymerase and appropriate concentrations of ribonucleotides. In vitro transcribed cRNA was purified using standard methods. Quality of synthesized cRNA was assessed by gel electrophoresis, and quantity was estimated by spectroscopy and gel electrophoresis. Stage V and VI oocytes were surgically removed from the ovaries of large, well-fed and healthy Xenopus laevis anesthetized with 3-amino-benzoic acid ethyl ester (1 gm/l). Clusters of oocytes were incubated with 292 Uml Worthington (Freehold, N.J.) type IV collagenase or 1.3 mg/ml collagenase (Life Technologies, Gaithersburg, Md.; 17018-029) for 2 hr in Ca2+-free solution comprised of (in mM) 115 NaCl, 2.5 KCl, and 10 HEPES, pH 7.5, with slow agitation to remove the follicular cell layer. […]

Consider `NC12CC3CC(CC(C3)C1)C2` [Amantadine], for which the “reduction of severity of dyskinesias” value in the data set on dyskinesias is given as 60%.
Take `CS(=O)(=O)Nc1ccc(OCC(O)CN(CCc2ccc(Cl)c(Cl)c2)Cc2ccccc2)cc1` (stereo not drawn) [Compound 93-30]: the “RAT Boost” value in data set [1] was 7.4. Further, in data set [2], the “HUMAN Boost” value is given as 21.0 and the “Absolute Boost Difference” value stood at 13.6.
With `CCCCN(CCc1ccc(Cl)c(Cl)c1)CC(O)COc1ccc(NS(C)(=O)=O)cc1` (stereo not drawn) [Compound 93-88], the “RAT Boost” value in data set [1] was 6.3. Also, in data set [2], the “HUMAN Boost” value stood at 22.1 and the “Absolute Boost Difference” value is given as 15.8.
On to `CS(=O)(=O)Nc1ccc(OCC(O)CN2CCN(c3ccc(F)c(F)c3)CC2)cc1` (stereo not drawn) [Compound 93-108], for which the “RAT Boost” value in data set [1] was 3.4. Further, in data set [2], the “HUMAN Boost” value is reported as 17.7 and the “Absolute Boost Difference” value came out at 14.3.
In the case of `C/C=C/CN(CCc1ccc(Cl)c(Cl)c1)CC(O)COc1ccc(NS(C)(=O)=O)cc1` (stereo not drawn) [Compound 93-128], the “RAT Boost” value in data set [1] turned out to be 4.1. Moreover, in data set [2], the “HUMAN Boost” value was found to be 18.0 and the “Absolute Boost Difference” value came out at 13.9.
Taken in the same sequence, the figures for `CS(=O)(=O)Nc1ccc(OCC2CN(CCc3cc(Cl)c(Cl)s3)C(c3c(F)c(F)c(F)c(F)c3F)O2)cc1` (stereo not drawn) [Compound 93-176] were 34.5, 29.9 and 4.6.
Turning to `CC(C(O)c1ccc(O)cc1)N1CCC(Cc2ccccc2)CC1` (stereo not drawn) [Ifenprodil], the “decrease in infarct volume” value in the data set with infarct volume [3] was 22%; in the data set with infarct volume [4], 42%.
Turning to `OC(CN1CCC(Cc2ccc(F)cc2)CC1)c1ccc(Cl)cc1` (stereo not drawn) [SL 82.0715], the “decrease in infarct volume” value in the data set with infarct volume [5] is listed as 36-48%.
In the case of `CNC1(c2ccccc2Cl)CCCCC1=O` (stereo not drawn) [ketamine], the “mean within shaded area (criteria for superior drug performance), NR1/NR2A” value on NR1/NR2A receptors is “fall within the shaded area”.
With (+)MK801, in data set [6], the “effects on locomotor activity” value is “stereotypical biphasic effects”.
